Our source for the chromatographic logP and log p values is US8614217B2 (priority 2008, dated 2013).

Read-outs that look alike come from different tables or passages of the source. Where only a bound is given, the exact number is not on record here.

A short description of the series: log P(HCOOH) (HPLC/MS). The class given is physicochemical.
Setting [1] is: HPLC on reversed phase columns, EEC directive 79/831 Annex V.A8, pH 2.7, 0.1% formic acid in water / acetonitrile gradient, read-out: log p.
Where [2] appears, read: HPLC on reversed phase columns, EEC directive 79/831 Annex V.A8, pH 2.7, 0.1% formic acid in water / acetonitrile gradient.
Setting [3] is: HPLC on reversed phase columns, EEC directive 79/831 Annex V.A8, pH 2.7 with 0.1% formic acid in water and acetonitrile.
Where [4] appears, read: HCOOH (formic acid), read-out: log P(HCOOH).

Regarding `C#CCCCC(=O)Nc1cccc(CON=C(c2ccccc2)n2nnnc2C)n1` [Example 34], under setting [1], the chromatographic logP stood at 3.04.

With `Cc1nnnn1C(=NOCc1cccc(NC(=O)C2CCC(=O)O2)n1)c1ccccc1` (centres unmarked) [Example 130], the log p under setting [2] is reported as 2.44.

Consider `Cn1nnnc1C(=NOCc1cccc(NC(=O)c2ccccc2F)n1)c1cccc(F)c1` [Example 366], for which, under setting [3], the log p is recorded as 3.65.

For the compound `Cc1ccccc1C(=O)Nc1cccc(CON=C(c2ccccc2)c2nnnn2C)n1` [Example 307], under setting [3], the log p was determined as 3.5.

`Cn1nnnc1C(=NOCc1csc(NC(=O)COc2ccc(Cl)cc2)n1)c1ccccc1` [Example 250]: under setting [3], the log p is recorded as 3.68.

As for `CCOc1cccc(C(=O)Nc2cccc(CON=C(c3ccccc3)c3nnnn3C)n2)c1` [Example 313], the log p under setting [3] is reported as 3.79.

Regarding `C#CCCOC(=O)Nc1cccc(CON=C(c2cccc(F)c2)c2nnnn2C)n1` [Example 374], the log p under setting [3] is recorded as 3.21.

As for `Cc1nnnn1C(=NOCc1cccc(NC(=O)OCCCCCl)n1)c1ccccc1` [Example 20], the log p under setting [2] amounted to 3.73.

Under setting [3], `Cn1nnnc1C(=NOCc1cccc(NC(=O)c2cccnc2Cl)n1)c1cccc(F)c1` [Example 360] registered a log p of 2.94.

Regarding `Cc1nnnn1C(=NOCc1cccc(NC(=O)OC2CCCCCC2)n1)c1ccccc1` [Example 21], the log p under setting [2] is 4.71.

For the compound `Cc1ccccc1C(=O)Nc1nc(CON=C(c2ccccc2)c2nnnn2C)cs1` [Example 327], under setting [3], the log p turned out to be 3.41.

The compound `Cn1nnnc1C(=NOCc1cccc(NC(=O)c2cccs2)n1)c1ccccc1` [Example 214] displayed a log p under setting [2] of 3.21.

With `Cn1nnnc1C(=NOCc1csc(NC(=O)CC2CC2)n1)c1cccc(F)c1` [Example 170], the log p under setting [2] is given as 2.98.

`Cc1nnnn1C(=NOCc1cccc(NC(=O)CCC2CCCC2)n1)c1cccc(F)c1` [Example 45] returned a log p under setting [2] of 4.33.

Under setting [3], `Cn1nnnc1C(=NOCc1csc(NC(=O)c2ccccc2OC(F)(F)F)n1)c1ccccc1` [Example 325] yielded a log p of 3.61.

`Cc1nnnn1C(=NOCc1csc(NC(=O)COC2CC(C)CCC2C(C)C)n1)c1ccccc1` (mixture of isomers) [Example 86] yielded a log p under setting [2] of 5.48.

Compound `Cc1nnnn1C(=NOCc1cccc(NC(=O)C(F)(F)Sc2ccccc2)n1)c1ccccc1` [Example 48] gave a log p under setting [2] of 4.2.

As for `Cn1nnnc1C(=NOCc1cccc(NC(=O)c2ccccc2Br)n1)c1cccc(F)c1` [Example 365], the log p under setting [3] is given as 3.59.

In the case of `Cc1ccccc1C(=O)Nc1cccc(CON=C(c2cccc(F)c2)c2nnnn2C)n1` [Example 331], the log p under setting [3] is listed as 3.61.

As to `C=C(C)OC(=O)Nc1nc(CON=C(c2ccccc2)n2nnnc2C)cs1` [Example 104], the log p under setting [2] was found to be 2.96.

Turning to `COc1ccccc1C(=O)Nc1nc(CON=C(c2ccccc2)c2nnnn2C)cs1` [Example 322], under setting [3], the log p is listed as 3.5.

As to `Cn1nnnc1/C(=N\OCc1cccc(NC(=O)OCCCCCl)n1)c1ccccc1` [Example 67, 4-chlorobutyl {6-[({[(Z)-(1-methyl-1H-tetrazol-5-yl)(phenyl)methylene]amino}oxy)methyl]pyridin-2-yl}carbamate], the chromatographic logP under setting [4] stood at 3.67 and the chromatographic logP under setting [1] was 3.67.

The compound `CC1CCC(C(C)C)C(OCC(=O)Nc2nc(CON=C(c3ccccc3)c3nnnn3C)cs2)C1` (centres unmarked) [Example 284] yielded a log p under setting [3] of 5.39.

`Cc1nnnn1C(=NOCc1cccc(NC(=O)c2ccc(Cl)nc2)n1)c1ccccc1` [Example 121] returned a log p under setting [2] of 3.15.

`Cc1nnnn1C(=NOCc1cccc(NC(=O)COCc2ccccc2)n1)c1ccccc1` [Example 144] came in with a log p under setting [2] of 3.73.

For `Cn1nnnc1C(=NOCc1csc(NC(=O)c2ccc(Cl)cc2)n1)c1ccccc1` [Example 333], under setting [3], the log p is given as 3.74.

Take `CCOC(=O)CCCC(=O)Nc1cccc(CON=C(c2ccccc2)n2nnnc2C)n1` [Example 148]: the log p under setting [2] stood at 2.98.

For the compound `C#CCCOC(=O)Nc1cccc(CON=C(c2ccccc2Cl)c2nnnn2C)n1` (mixture of isomers) [Example 372], the log p under setting [3] stood at 3.21.

Consider `COCCOC(=O)Nc1nc(CON=C(c2cccc(F)c2)c2nnnn2C)cs1` [Example 301], for which the log p under setting [3] came out at 2.66.

For `Cn1nnnc1C(=NOCc1csc(NC(=O)COc2ccccc2Cl)n1)c1ccccc1` [Example 247], under setting [3], the log p is given as 3.61.

Consider `C#CCCOC(=O)Nc1cccc(CON=C(c2ccccc2)n2nnnc2C)n1` [Example 17], for which the log p under setting [2] was found to be 3.15.

On to `CC(=O)OCCCCOC(=O)Nc1nc(CON=C(c2cccc(F)c2)c2nnnn2C)cs1` [Example 198], for which the log p under setting [2] turned out to be 3.15.

Turning to `COC(=O)CCCCC(=O)Nc1cccc(CON=C(c2ccccc2)n2nnnc2C)n1` [Example 145], the log p under setting [2] turned out to be 2.86.

For the compound `C#CCCOC(=O)Nc1cccc(CON=C(c2cccc(F)c2)n2nnnc2C)n1` [Example 23], the log p under setting [2] is 3.21.

`Cc1nnnn1C(=NOCc1cccc(NC(=O)CCC2CCCC2)n1)c1ccccc1` [Example 44] gave a log p under setting [2] of 4.25.

As for `Cn1nnnc1C(=NOCc1cccc(N2C(=O)c3ccccc3C2=O)n1)c1ccccc1` [2-{6-[({[(1-methyl-1H-tetrazol-5-yl)(phenyl)methylene]amino}oxy)methyl]pyridin-2-yl}-1H-isoindole-1,3(2H)-dione], the chromatographic logP under setting [4] came to 3.04.

In turn, `Cn1nnnc1C(=NOCc1csc(NC(=O)c2cccc(Cl)c2)n1)c1ccccc1` [Example 248] had a log p under setting [3] of 3.73.

Take `C#CCCCC(=O)Nc1cccc(CON=C(c2ccccc2)c2nnnn2C)n1` [Example 55]: the log p under setting [2] is reported as 2.98.

Turning to `Cn1nnnc1C(=NOCc1cccc(N)n1)c1ccccc1` [6-[({[(1-methyl-1H-tetrazol-5-yl)(phenyl)methylene]amino}oxy)methyl]pyridin-2-amine], the chromatographic logP under setting [4] amounted to 1.14 and the chromatographic logP (HCOOH, read-out: log P(HCOOH)) came out at 1.13.

For `C#CCCOC(=O)Nc1cccc(CON=C(c2cccc(F)c2)c2nnnn2C)n1` [Example 13], under setting [2], the log p was determined as 3.21.

As to `COCCOCC(=O)Nc1nc(CON=C(c2ccccc2)c2nnnn2C)cs1` [Example 286], the log p under setting [3] is reported as 2.54.

Regarding `O=C1c2ccccc2C(=O)N1OCc1cccc(N2C(=O)c3ccccc3C2=O)n1` [2-(6-{[(1,3-dioxo-1,3-dihydro-2H-isoindol-2-yl)oxy]methyl}pyridin-2-yl)-1H-isoindole-1,3(2H)-dione], under setting [4], the chromatographic logP is 2.44.

For the compound `Cc1ccc(C(=O)Nc2cccc(CON=C(c3ccccc3)c3nnnn3C)n2)cc1` [Example 306], under setting [3], the log p turned out to be 3.65.

In turn, `Cn1nnnc1C(=NOCc1cccc(NC(=O)c2ccccc2OC(F)(F)F)n1)c1cccc(F)c1` [Example 328] gave a log p under setting [3] of 3.9.

Under setting [3], `Cc1ccc(C(=O)Nc2nc(CON=C(c3ccccc3)c3nnnn3C)cs2)cc1` [Example 335] displayed a log p of 3.59.

Take `Cn1nnnc1C(=NOCc1csc(NC(=O)CCC2CCCCC2)n1)c1ccccc1` [Example 206]: the log p under setting [2] is recorded as 4.3.

Under setting [3], `COC(=O)CCCCC(=O)Nc1nc(CON=C(c2cccc(F)c2)c2nnnn2C)cs1` [Example 298] returned a log p of 2.94.

Under setting [2], `Cc1nnnn1C(=NOCc1cccc(NC(=O)C2(c3ccccc3)CC2)n1)c1ccccc1` [Example 110] registered a log p of 2.55.

The compound `Cn1nnnc1C(=NOCc1csc(NC(=O)COc2cccc(Cl)c2)n1)c1ccccc1` [Example 249] registered a log p under setting [3] of 3.7.

Under setting [2], `Cc1nnnn1C(=NOCc1cccc(NC(=O)C(F)(F)C(F)(F)C(F)(F)C(F)(F)C(F)(F)C(F)(F)C(F)(F)F)n1)c1ccccc1` [Example 119] gave a log p of 5.93.

As for `C=CCCOC(=O)Nc1cccc(CON=C(c2ccccc2C)c2nnnn2C)n1` (mixture of isomers) [Example 315], the log p under setting [3] is on record as 3.65.

In the case of `Cn1nnnc1C(=NOCc1csc(NC(=O)c2cc(F)cc(F)c2)n1)c1ccccc1` [Example 340], the log p under setting [3] came to 3.63.

With `Cn1nnnc1C(=NOCc1cccc(NC(=O)CSCc2ccccc2)n1)c1ccccc1` [Example 218], under setting [2], the log p was 3.73.

Under setting [2], `C=CCCOC(=O)Nc1cccc(CON=C(c2ccccc2)c2nnnn2C)n1` [Example 57] returned a log p of 3.51.

For the compound `Cn1nnnc1C(=NOCc1csc(NC(=O)CC23CC4CC(CC(C4)C2)C3)n1)c1ccccc1` [Example 278], under setting [3], the log p worked out at 4.69.

As for `C=C(C)OC(=O)Nc1cccc(CON=C(c2ccccc2)n2nnnc2C)n1` [Example 107], the log p under setting [2] turned out to be 3.21.

`Cn1nnnc1C(=NOCc1cccc(NC(=O)c2ccc(F)cc2)n1)c1cccc(F)c1` [Example 329] displayed a log p under setting [3] of 3.57.

`CCOc1ccc(C(=O)Nc2nc(CON=C(c3ccccc3)c3nnnn3C)cs2)cc1` [Example 271] gave a log p under setting [3] of 3.64.

Under setting [2], `Cn1nnnc1C(=NOCc1cccc(NC(=O)CCCc2ccsc2)n1)c1ccccc1` [Example 221] came in with a log p of 3.7.

As for `NOCc1cccc(N)n1` [6-[(aminooxy)methyl]pyridin-2-amine], under setting [4], the chromatographic logP was < -0.23.

`Cc1ccc(C(=O)Nc2cccc(CON=C(c3cccc(F)c3)c3nnnn3C)n2)c(Cl)c1` [Example 354] returned a log p under setting [3] of 3.9.

`Cn1nnnc1C(=NOCc1cccc(NC(=O)CCOc2ccccc2)n1)c1cccc(F)c1` [Example 10] had a log p under setting [2] of 3.64.

Under setting [2], `Cc1nnnn1C(=NOCc1cccc(NC(=O)CC2CCCCC2)n1)c1ccccc1` [Example 40] registered a log p of 4.12.

`Cc1nnnn1C(=NOCc1cccc(NC(=O)CSCc2ccccc2)n1)c1ccccc1` [Example 151] had a log p under setting [2] of 3.73.

`Cc1nnnn1C(=NOCc1cccc(NC(=O)CO[C@@H]2C[C@H](C)CC[C@H]2C(C)C)n1)c1ccccc1` [Example 126]: the log p under setting [2] is 5.95.

Compound `Cc1nnnn1C(=NOCc1cccc(NC(=O)CC2CCCCC2)n1)c1cccc(F)c1` [Example 41] displayed a log p under setting [2] of 4.23.
